From patent US7994168B2, “Hexahydro-pyrazino[1,2-A]pyrimidine-4,7-dione derivatives substituted with amino acids” (Sanofi-Aventis Deutschland GmbH, priority 2004, dated 2011)

What follows are compounds tested against T1, MC4 (Homo sapiens, UniProt P32245) (assay: In vitro functional assay with recombinant cells: agonist-induced changes in intracellular Ca2+ (FLIPR)). Conditions: recombinant HEK293 cells expressing MC4 and G-protein α-16; Fluo-4 Ca2+ FLIPR; 100% = 100 nM reference agonist MTII.
T1 construct: expressed in transfected cells; host or cells: HEK293
T1 sequence (P32245 whole entry): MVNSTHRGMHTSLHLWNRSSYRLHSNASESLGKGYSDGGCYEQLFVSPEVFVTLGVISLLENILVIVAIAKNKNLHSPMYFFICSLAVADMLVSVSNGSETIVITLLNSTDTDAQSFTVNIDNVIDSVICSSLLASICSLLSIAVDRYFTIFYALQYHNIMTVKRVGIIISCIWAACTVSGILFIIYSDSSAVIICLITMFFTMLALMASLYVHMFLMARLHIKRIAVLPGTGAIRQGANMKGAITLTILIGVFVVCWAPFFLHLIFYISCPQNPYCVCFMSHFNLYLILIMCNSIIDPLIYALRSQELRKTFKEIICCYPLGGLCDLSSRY
Format: cell-based
Description: In Vitro Functional Assays with Recombinant Cells
Function-testing assays were carried out by determining the agonist-induced changes in the intracellular concentration of Ca^2+ in recombinant HEK293 cells which express both MC4 and G-protein α-16 by means of the FLIPR technique (“Fluorescence Imaging Plate Reader”, Molecular Devices Corp.).
For the investigations, cells were seeded into 96-well microtiter plates (50 000 cells/well) and allowed to grow overnight. The medium was removed and the cells were incubated in buffer which contained the fluorescent dye Fluo-4. After this loading with dye, the cells were washed, test substance was added, and changes in the intracellular Ca^2+ concentration were measured in the FLIPR apparatus. Results have been shown as percentage change relative to the control (0%: no test substance added; 100%: 100 nM reference agonist MTII added), and used to calculate dose/activity plots, with subsequent determination of EC50 values.

Row | Compound | EC50
1 | CC(C)C(N)C(=O)N1CCCC1C(=O)NC1CN(S(=O)(=O)c2ccc(Cl)cc2Cl)C2CN(C)C(=O)C(Cc3ccc(F)c(F)c3)N2C1=O (stereo not drawn) [Example 15, N-[1-(2,4-Dichlorobenzenesulfonyl)-6-(3,4-difluorobenzyl)-8-methyl-4,7-dioxooctahydropyrazino[1,2-a]pyrimidin-3-yl]-1-(2-amino-3-methylbutyryl)pyrrolidine-2-carboxamide] | 30.8 nM
2 | CC(C)C(N)C(=O)N1CCCC1C(=O)NC1CN(S(=O)(=O)c2ccc(Cl)cc2Cl)C2CN(C3CC3)C(=O)C(Cc3cccnc3)N2C1=O (stereo not drawn) [Example 17, N-[8-Cyclopropyl-1-(2,4-dichlorobenzenesulfonyl)-4,7-dioxo-6-pyridin-3-ylmethyloctahydropyrazino[1,2-a]pyrimidin-3-yl]-1-(2-amino-3-methylbutyryl)pyrrolidine-2-carboxamide] | 3490 nM
3 | CC(C)CC(N)C(=O)N1CCCC1C(=O)NC1CN(S(=O)(=O)c2ccc(Cl)cc2Cl)C2CN(C(C)C)C(=O)C(Cc3ccc(Cl)cc3)N2C1=O (stereo not drawn) [Example 4, N-[6-(4-Chlorobenzyl)-1-(2,4-dichlorobenzenesulfonyl)-8-isopropyl-4,7-dioxooctahydropyrazino[1,2-a]pyrimidin-3-yl]-1-(2-amino-4-methylpentanoyl)pyrrolidine-2-carboxamide] | 0.4 nM
4 | CC(C)C(N)C(=O)N1CCCC1C(=O)NC1CN(S(=O)(=O)c2ccc(Cl)cc2Cl)C2CN(CC(F)F)C(=O)C(Cc3ccc(Cl)cc3)N2C1=O (stereo not drawn) [Example 11, N-[6-(4-Chlorobenzyl)-1-(2,4-dichlorobenzenesulfonyl)-8-(2,2-difluoroethyl)-4,7-dioxooctahydropyrazino[1,2-a]pyrimidin-3-yl]-1-(2-amino-3-methylbutyryl)pyrrolidine-2-carboxamide] | 0.6 nM
5 | CC(C)N1CC2N(C(=O)C(NC(=O)C3CCCN3C(=O)CN)CN2S(=O)(=O)c2ccc(Cl)cc2Cl)C(Cc2ccc(Cl)cc2)C1=O (stereo not drawn) [Example 2, N-[6-(4-Chlorobenzyl)-1-(2,4-dichlorobenzenesulfonyl)-8-isopropyl-4,7-dioxooctahydropyrazino[1,2-a]pyrimidin-3-yl]-1-(2-aminoacetyl)pyrrolidine-2-carboxamide] | 0.6 nM
6 | CCN1C[C@H]2N(C(=O)C(NC(=O)C3CCCN3C(=O)C(N)C(C)C)CN2S(=O)(=O)c2ccc(Cl)cc2Cl)[C@@H](Cc2ccc(F)c(F)c2)C1=O (stereo partly drawn) [Example 14, N-[1-(2,4-dichlorobenzenesulfonyl)-6-(3,4-difluorobenzyl)-8-ethyl-4,7-dioxooctahydropyrazino[1,2-a]pyrimidin-3-yl]-1-(2-amino-3-methylbutryl)pyrrolidine-2-carboxamide] | 1.6 nM
7 | CC(C)C(C(=O)N1CCCC1C(=O)NC1CN(S(=O)(=O)c2ccc(Cl)cc2Cl)C2CN(C(C)C)C(=O)C(Cc3ccc(Cl)cc3)N2C1=O)N(C)C (stereo not drawn) [Example 5, N-[6-(4-Chlorobenzyl)-1-(2,4-dichlorobenzenesulfonyl)-8-isopropyl-4,7-dioxooctahydropyrazino[1,2-a]pyrimidin-3-yl]-1-(2-dimethylamino-3-methylbutyryl)pyrrolidine-2-carboxamide] | 2 nM
8 | CC(C)C(N)C(=O)N1CCCC1C(=O)NC1CN(S(=O)(=O)c2ccc(Cl)cc2F)C2CN(C(C)C)C(=O)C(Cc3ccc(Cl)cc3)N2C1=O (stereo not drawn) [Example 8, N-[6-(4-Chlorobenzyl)-1-(4-chloro-2-fluorobenzenesulfonyl)-8-isopropyl-4,7-dioxooctahydropyrazino[1,2-a]pyrimidin-3-yl]-1-(2-amino-3-methylbutyryl)pyrrolidine-2-carboxamide] | 2.4 nM
9 | CC(C)C(N)C(=O)N1CCCC1C(=O)NC1CN(S(=O)(=O)c2ccc(Cl)cc2Cl)C2CN(C(C)C)C(=O)C(Cc3ccc(F)cc3F)N2C1=O (stereo not drawn) [Example 10, N-[1-(2,4-Dichlorobenzenesulfonyl)-6-(2,4-difluorobenzyl)-8-isopropyl-4,7-dioxooctahydropyrazino[1,2-a]pyrimidin-3-yl]-1-(2-amino-3-methylbutyryl)pyrrolidine-2-carboxamide] | 5.7 nM
10 | CC(N)C(=O)N1CCCC1C(=O)NC1CN(S(=O)(=O)c2ccc(Cl)cc2Cl)C2CN(C(C)C)C(=O)C(Cc3ccc(Cl)cc3)N2C1=O (stereo not drawn) [Example 3, N-[6-(4-Chlorobenzyl)-1-(2,4-dichlorobenzenesulfonyl)-8-isopropyl-4,7-dioxooctahydropyrazino[1,2-a]pyrimidin-3-yl]-1-(2-aminopropionyl)pyrrolidine-2-carboxamide] | 0.2 nM
11 | CC(C)C(N)C(=O)N1CCCC1C(=O)NC1CN(S(=O)(=O)c2cc(F)ccc2Cl)C2CN(C(C)C)C(=O)C(Cc3ccc(Cl)cc3)N2C1=O (stereo not drawn) [Example 6, N-[6-(4-Chlorobenzyl)-1-(2-chloro-5-fluorobenzenesulfonyl)-8-isopropyl-4,7-dioxooctahydropyrazino[1,2-a]pyrimidin-3-yl]-1-(2-amino-3-methylbutyryl)pyrrolidine-2-carboxamide] | 3.2 nM
12 | CC(C)C(N)C(=O)N1CCCC1C(=O)NC1CN(S(=O)(=O)c2ccc(Cl)cc2Cl)C2CN(C(C)C)C(=O)C(Cc3ccc(Cl)cc3)N2C1=O (stereo not drawn) [Example 1, N-[6-(4-Chlorobenzyl)-1-(2,4-dichlorobenzenesulfonyl)-8-isopropyl-4,7-dioxooctahydropyrazino[1,2-a]pyrimidin-3-yl]-1-(2-amino-3-methylbutyryl)pyrrolidin-2-carboxamide] | 0.4 nM
13 | CC(C)C(N)C(=O)N1CCCC1C(=O)NC1CN(S(=O)(=O)c2ccc(Cl)cc2Cl)C2CN(C(C)C)C(=O)C(Cc3cccnc3)N2C1=O (stereo not drawn) [Example 16, N-[1-(2,4-Dichlorobenzenesulfonyl)-8-isopropyl-4,7-dioxo-6-pyridin-3-ylmethyloctahydropyrazino[1,2-a]pyrimidin-3-yl]-1-(2-amino-3-methylbutyryl)pyrrolidine-2-carboxamide] | 717 nM
14 | CC(C)C(N)C(=O)N1CCCC1C(=O)NC1CN(S(=O)(=O)c2ccc(OC(F)(F)F)cc2Cl)C2CN(C(C)C)C(=O)C(Cc3ccc(Cl)cc3)N2C1=O (stereo not drawn) [Example 7, N-[6-(4-Chlorobenzyl)-1-(2-chloro-4-trifluoromethoxybenzene-sulfonyl)-8-isopropyl-4,7-dioxooctahydropyrazino[1,2-a]-pyrimidin-3-yl]-1-(2-amino-3-methylbutyryl)pyrrolidine-2-carboxamide] | 2.6 nM
15 | CC(C)C(N)C(=O)N1CCCC1C(=O)NC1CN(S(=O)(=O)c2ccc(Cl)cc2Cl)C2CN(C(C)C)C(=O)C(Cc3ccc(F)c(F)c3)N2C1=O (stereo not drawn) [Example 9, N-[1-(2,4-Dichlorobenzenesulfonyl)-6-(3,4-difluorobenzyl)-8-isopropyl-4,7-dioxooctahydropyrazino[1,2-a]pyrimidin-3-yl]-1-(2-amino-3-methylbutyryl)pyrrolidine-2-carboxamide] | 1.5 nM
16 | CCN1CC2N(C(=O)C(NC(=O)C3CCCN3C(=O)C(N)C(C)C)CN2S(=O)(=O)c2ccc(Cl)cc2Cl)C(Cc2ccc(Cl)cc2)C1=O (stereo not drawn) [Example 12, N-[6-(4-Chlorobenzyl)-1-(2,4-dichlorobenzenesulfonyl)-8-ethyl-4,7-dioxooctahydropyrazino[1,2-a]pyrimidin-3-yl]-1-(2-amino-3-methylbutyryl)pyrrolidine-2-carboxamide] | 0.6 nM
17 | CC(C)C(N)C(=O)N1CCCC1C(=O)NC1CN(S(=O)(=O)c2ccc(Cl)cc2Cl)C2CN(C)C(=O)C(Cc3ccc(Cl)cc3)N2C1=O (stereo not drawn) [Example 13] | 4.7 nM

Each compound was assayed on female NMRI mice (assay: Anorectic effect: cumulative condensed milk consumption of fasted mice). Conditions: oral dose 30 mg/kg by gavage after 24 hours food withdrawal, milk consumption determined for 7 hours, compared with vehicle-treated control animals.
Format: in vivo
Description: The anorectic effect was tested on female NMRI mice. After withdrawal of food for 24 hours, the test product was administered by gavage. The animals were housed singly with free access to drinking water and were offered condensed milk 30 minutes after administration of the product. The condensed milk consumption was determined every half hour for 7 hours, and the general wellbeing of the animals was observed. The measured milk consumption was compared with the vehicle-treated control animals.

Row | Compound | Reduction in the cumulative milk consumption as % of the control
18 | CC(C)C(N)C(=O)N1CCCC1C(=O)NC1CN(S(=O)(=O)c2ccc(Cl)cc2Cl)C2CN(C(C)C)C(=O)C(Cc3ccc(Cl)cc3)N2C1=O (stereo not drawn) [Example 1, N-[6-(4-Chlorobenzyl)-1-(2,4-dichlorobenzenesulfonyl)-8-isopropyl-4,7-dioxooctahydropyrazino[1,2-a]pyrimidin-3-yl]-1-(2-amino-3-methylbutyryl)pyrrolidin-2-carboxamide] | 8%
